Experimental data taken from US20220009920A1 (GB005, Inc., priority 2020, published 2022).

Experiments:
Assay in all cases: Large panel kinase profiling
Format in all cases: biochemical
Conditions in all cases: 1 μM test article, 1 mM ATP
EPHA1 = biological target: T1, EPHA1 (Homo sapiens, UniProt P21709)
T1 sequence (P21709 26-976): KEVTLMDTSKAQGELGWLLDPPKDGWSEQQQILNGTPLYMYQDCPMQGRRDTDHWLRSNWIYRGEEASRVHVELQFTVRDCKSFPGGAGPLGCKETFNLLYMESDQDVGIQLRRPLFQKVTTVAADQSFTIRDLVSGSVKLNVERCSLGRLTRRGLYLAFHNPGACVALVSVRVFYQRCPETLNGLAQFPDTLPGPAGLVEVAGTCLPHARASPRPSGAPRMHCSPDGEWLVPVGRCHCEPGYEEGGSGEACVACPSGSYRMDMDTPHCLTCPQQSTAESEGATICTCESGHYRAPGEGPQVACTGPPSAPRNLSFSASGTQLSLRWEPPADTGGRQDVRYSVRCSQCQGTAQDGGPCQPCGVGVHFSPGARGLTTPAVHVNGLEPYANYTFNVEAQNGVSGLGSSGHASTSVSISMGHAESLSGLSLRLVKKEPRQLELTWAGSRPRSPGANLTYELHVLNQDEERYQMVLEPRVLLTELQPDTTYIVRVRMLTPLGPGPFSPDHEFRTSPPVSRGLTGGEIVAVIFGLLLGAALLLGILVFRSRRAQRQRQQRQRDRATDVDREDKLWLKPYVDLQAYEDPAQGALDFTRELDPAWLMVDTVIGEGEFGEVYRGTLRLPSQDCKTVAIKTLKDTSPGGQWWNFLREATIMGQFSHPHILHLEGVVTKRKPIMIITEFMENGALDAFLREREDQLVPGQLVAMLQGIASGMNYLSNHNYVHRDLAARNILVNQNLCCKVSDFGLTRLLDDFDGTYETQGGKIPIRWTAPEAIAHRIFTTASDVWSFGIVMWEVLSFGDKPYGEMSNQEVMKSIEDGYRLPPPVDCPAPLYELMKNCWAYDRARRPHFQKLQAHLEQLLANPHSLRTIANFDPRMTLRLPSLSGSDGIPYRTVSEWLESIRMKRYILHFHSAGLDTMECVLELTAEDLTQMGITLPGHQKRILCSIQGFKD
In short: (§1)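 Activity is measured in real time from the CSox sensor's fluorescence at 485 nm after 360 nm excitation, sampled every minute. Assays run at 30° C. with 1 mM ATP and a single 1 μM compound dose.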

ERN2 = ERN2 (Homo sapiens, UniProt Q76MJ5)
In short: as §1

GRK2 = biological target: T2, GRK2 (Homo sapiens, UniProt P25098)
T2 construct: AssayQuant Technologies, Inc. (service provider)
T2 sequence (P25098 1-689): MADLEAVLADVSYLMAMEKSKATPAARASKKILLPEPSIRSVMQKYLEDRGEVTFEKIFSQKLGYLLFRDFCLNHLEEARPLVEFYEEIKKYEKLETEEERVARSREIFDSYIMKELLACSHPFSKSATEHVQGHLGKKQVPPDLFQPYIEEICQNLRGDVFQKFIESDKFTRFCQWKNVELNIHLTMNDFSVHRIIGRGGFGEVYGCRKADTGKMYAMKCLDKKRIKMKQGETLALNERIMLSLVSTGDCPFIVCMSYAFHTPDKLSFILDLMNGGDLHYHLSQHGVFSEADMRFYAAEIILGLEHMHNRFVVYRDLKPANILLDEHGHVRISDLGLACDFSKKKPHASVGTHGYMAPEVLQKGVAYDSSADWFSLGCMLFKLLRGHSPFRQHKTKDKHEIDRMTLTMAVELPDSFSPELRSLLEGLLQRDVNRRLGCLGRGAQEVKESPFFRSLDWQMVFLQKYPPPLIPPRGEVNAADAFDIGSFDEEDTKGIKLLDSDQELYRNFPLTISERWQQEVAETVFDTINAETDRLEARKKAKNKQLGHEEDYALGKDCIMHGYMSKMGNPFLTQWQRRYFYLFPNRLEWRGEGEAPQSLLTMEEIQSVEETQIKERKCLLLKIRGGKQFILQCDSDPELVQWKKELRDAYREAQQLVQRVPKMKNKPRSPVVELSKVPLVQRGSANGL
In short: as §1

JAK2(JH1) = biological target: T3, JAK2(JH1) (Homo sapiens, UniProt O60674)
T3 construct: JAK2(JH1)
In short: as §1

MAP3K11 = MAP3K11 (Homo sapiens, UniProt Q16584)
In short: as §1

SLK = biological target: T4, SLK (Homo sapiens, UniProt Q9H2G2)
T4 construct: AssayQuant Technologies, Inc. (contract assay)
In short: as §1

T3 sequence (O60674 849-1124 limits assumed, species assumed): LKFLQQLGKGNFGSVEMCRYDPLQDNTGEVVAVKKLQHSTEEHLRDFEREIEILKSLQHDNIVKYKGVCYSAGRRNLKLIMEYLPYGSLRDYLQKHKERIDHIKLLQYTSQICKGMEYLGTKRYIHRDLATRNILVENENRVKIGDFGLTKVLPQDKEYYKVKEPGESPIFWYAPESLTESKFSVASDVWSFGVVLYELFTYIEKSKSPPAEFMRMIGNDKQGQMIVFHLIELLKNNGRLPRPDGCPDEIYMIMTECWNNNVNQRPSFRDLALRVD
Sequence of MAP3K11 (Q16584 whole entry, species assumed): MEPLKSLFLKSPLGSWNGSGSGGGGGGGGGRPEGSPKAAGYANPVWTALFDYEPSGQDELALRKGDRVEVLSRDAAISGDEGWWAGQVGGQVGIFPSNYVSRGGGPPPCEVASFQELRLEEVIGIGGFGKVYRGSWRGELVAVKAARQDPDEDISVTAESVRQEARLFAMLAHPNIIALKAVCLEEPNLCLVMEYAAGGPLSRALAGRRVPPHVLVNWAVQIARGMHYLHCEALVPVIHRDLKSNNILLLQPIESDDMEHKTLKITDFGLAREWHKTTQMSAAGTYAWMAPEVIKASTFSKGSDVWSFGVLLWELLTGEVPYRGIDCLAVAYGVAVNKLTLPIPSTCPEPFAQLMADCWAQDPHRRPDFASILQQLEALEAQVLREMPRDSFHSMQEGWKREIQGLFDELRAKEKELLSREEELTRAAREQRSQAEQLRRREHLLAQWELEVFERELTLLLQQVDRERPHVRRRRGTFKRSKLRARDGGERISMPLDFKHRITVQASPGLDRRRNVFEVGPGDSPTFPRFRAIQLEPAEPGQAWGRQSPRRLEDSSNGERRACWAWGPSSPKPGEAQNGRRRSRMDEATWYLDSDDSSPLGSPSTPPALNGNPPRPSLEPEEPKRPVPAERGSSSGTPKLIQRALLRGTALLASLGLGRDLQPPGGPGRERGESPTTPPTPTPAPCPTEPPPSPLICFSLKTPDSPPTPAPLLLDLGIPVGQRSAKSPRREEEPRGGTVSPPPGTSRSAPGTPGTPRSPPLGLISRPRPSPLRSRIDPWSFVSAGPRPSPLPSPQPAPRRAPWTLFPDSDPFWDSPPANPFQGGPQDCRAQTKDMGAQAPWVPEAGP
Sequence of ERN2 (Q76MJ5 35-926, species assumed): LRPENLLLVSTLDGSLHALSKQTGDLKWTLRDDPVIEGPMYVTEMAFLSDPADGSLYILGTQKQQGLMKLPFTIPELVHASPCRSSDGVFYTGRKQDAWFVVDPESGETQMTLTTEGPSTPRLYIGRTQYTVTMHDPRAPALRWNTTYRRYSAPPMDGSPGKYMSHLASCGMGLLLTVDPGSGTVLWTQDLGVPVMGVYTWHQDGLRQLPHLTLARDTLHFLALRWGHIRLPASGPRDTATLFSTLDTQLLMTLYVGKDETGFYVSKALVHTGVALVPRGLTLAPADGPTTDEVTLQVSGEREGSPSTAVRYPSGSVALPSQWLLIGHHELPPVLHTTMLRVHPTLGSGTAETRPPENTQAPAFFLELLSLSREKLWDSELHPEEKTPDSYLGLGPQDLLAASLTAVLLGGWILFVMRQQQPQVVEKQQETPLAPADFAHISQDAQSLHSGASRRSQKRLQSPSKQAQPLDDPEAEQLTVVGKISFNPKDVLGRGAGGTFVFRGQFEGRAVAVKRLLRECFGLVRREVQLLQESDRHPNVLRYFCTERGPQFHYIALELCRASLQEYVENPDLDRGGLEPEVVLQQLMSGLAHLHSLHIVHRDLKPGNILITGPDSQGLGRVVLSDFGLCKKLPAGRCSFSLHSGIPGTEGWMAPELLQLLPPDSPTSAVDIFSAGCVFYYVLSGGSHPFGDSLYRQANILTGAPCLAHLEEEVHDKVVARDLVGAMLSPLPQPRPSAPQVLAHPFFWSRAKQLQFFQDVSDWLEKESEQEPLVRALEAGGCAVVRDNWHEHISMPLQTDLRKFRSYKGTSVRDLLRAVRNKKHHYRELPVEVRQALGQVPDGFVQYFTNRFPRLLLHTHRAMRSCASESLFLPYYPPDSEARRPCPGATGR
T4 sequence (Q9H2G2 whole entry): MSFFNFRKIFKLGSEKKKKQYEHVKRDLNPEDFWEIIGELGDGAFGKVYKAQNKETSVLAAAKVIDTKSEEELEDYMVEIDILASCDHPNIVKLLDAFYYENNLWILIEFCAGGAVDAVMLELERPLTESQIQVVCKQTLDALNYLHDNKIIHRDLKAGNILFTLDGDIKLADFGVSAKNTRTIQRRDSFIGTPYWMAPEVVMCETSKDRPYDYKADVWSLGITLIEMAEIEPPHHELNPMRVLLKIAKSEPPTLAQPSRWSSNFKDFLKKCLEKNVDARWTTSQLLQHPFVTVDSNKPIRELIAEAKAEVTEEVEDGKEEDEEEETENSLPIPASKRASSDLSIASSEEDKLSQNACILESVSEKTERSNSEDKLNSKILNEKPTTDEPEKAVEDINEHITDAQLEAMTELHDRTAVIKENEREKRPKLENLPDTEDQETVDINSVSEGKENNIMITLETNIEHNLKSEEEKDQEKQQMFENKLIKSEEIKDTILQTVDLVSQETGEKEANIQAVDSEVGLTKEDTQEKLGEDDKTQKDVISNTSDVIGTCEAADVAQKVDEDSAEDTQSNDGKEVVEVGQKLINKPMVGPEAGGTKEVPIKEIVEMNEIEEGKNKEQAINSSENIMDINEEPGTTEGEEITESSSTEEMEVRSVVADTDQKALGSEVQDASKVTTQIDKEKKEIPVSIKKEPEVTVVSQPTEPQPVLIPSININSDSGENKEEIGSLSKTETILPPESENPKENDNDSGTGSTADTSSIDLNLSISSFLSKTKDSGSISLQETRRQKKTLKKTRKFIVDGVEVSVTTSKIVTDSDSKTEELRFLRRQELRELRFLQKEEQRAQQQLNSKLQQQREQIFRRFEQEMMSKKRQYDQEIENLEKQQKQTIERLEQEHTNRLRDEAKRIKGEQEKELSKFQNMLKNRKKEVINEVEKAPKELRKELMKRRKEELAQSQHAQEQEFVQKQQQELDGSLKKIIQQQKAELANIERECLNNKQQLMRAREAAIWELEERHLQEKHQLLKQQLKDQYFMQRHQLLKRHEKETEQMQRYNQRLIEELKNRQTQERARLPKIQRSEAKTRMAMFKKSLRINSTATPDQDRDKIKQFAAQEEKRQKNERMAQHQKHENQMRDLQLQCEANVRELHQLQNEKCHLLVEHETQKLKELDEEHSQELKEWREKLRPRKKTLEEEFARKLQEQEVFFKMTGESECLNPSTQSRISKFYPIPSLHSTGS

Row | Structure (SMILES) | inhibition at 1 µM (EPHA1) | inhibition at 1 µM (ERN2) | inhibition at 1 µM (GRK2) | inhibition at 1 µM (JAK2(JH1)) | inhibition at 1 µM (MAP3K11) | inhibition at 1 µM (SLK)
1 | C=CC(=O)N1CCCC(c2c(F)cc(C(N)=O)c3[nH]c4c(c23)CCCCC4)C1 (single isomer, unassigned) [Compound 5-6] | 3.7% | -8% | -14.8% | 11.4% | 16% | -3.7%
2 | C=CC(=O)N1CCC[C@@H](c2c(F)cc(C(N)=O)c3[nH]c4c(c23)CC2(CC4)CC2)C1 [Compound 6-2, (S)-5-(1-acryloylpiperidin-3-yl)-6-fluoro-1,2,4,9-tetrahydrospiro[carbazole-3,1′-cyclopropane]-8-carboxamide] | 22% | -14.6% | -10.5% | 10.3% | 17.6% | 8.9%
3 | C=CC(=O)N1CCC[C@@H](c2c(F)cc(C(N)=O)c3[nH]c4c(c23)CCC4)C1 [Compound 10-2, (S)-8-(1-acryloylpiperidin-3-yl)-7-fluoro-1,2,3,4-tetrahydrocyclo-penta[b]indole-5-carboxamide] | 8.5% | -7.1% | -1.6% | -0.8% | -3.2% | -48.3%
